Legend:
[1] = literature, in words; cited from earlier work
[2] = tested on: ADP-induced aggregation of blood platelet-rich plasma; assay: In Vivo/In Vitro platelet aggregation (ADP) after I.P. dosing of rabbits; conditions: Oryctolagus cuniculus, ip, 2 h, dose for 50% inhibition of aggregation, one to two hours after dosing
Protocol: (§1) *In vivo/In vitro testing:
(§2) Before dosing the animals, blood samples are taken. The blood is centrifuged to obtain the blood platelet-rich plasma. Aggregation of this plasma is induced with ADP or collagen. This is the control.
(§3) The animals are then dosed with the compounds to be tested (orally or parenterally). Depending upon the route of administration, one to two hours are allowed to elapse after dosing. Blood is drawn and the same procedure employed as for the control is untreated animals.
The dose required to produce 50% inhibition of the aggregation is determined by dose response data obtained in this manner.

[3] = tested on: ADP-induced aggregation of blood platelet-rich plasma; assay: In Vivo/In Vitro platelet aggregation (ADP) after P.O. dosing of dogs; conditions: one to two hours after dosing
Protocol: as §1, §2, §3

Row | Structure (SMILES) | antihypertensive / hypotensive activity of prior art compounds [1] | ED50 [2] | In Vivo/In Vitro Dogs P.O. 5 mg./kg. ADP % Inhibition [3]
1 | c1ccc2c(c1)CN1CCNC1=N2 [SPC2] | potent antihypertensive activity in rats, dogs, cats and rabbits | – | –
2 | CC1c2ccccc2N=C2NC(=O)CN21 (stereo not drawn) [Compound 29] | – | 7 mg/kg | 35%
